Blank lines part the entries; values can stand above or below the compound they belong to.
Legend:
p27 in ECC-1 cells = experiment: p27 immunoblot in ECC-1 cells (whole cell lysates, nuclear and cytoplasmic fractions); conditions: for Block of E2-induced decrease of p27: ECC-1, control siRNA transfected, 1 nM E2 plus 1 μM Lactacystin or 10 nM ICI 182,780
Method: The endometrial carcinoma cell line (derived from a well-differentiated endometrioid Type I ECA) ECC-1 cells (ATCC, Manassas, Va.) were plated at a density of 3×10^5/well/6-well plate and grown in DMEM:F12 supplemented with 10% FBS (BioWest, Ocala, Fla.). The cell line was passaged in the laboratory for fewer than 6 months after receipt. […] ECAs were plated at a density of 2.2×10^6 cells/6-well Primaria® plates (BD Biosciences, San Jose, Calif.) in McCoys 5A media without phenol red containing 10% charcoal-stripped FBS, 2 mM L-Glutamine (Invitrogen) and antimycotic antibiotic solution (Mediatech, Hendon, Va.).
For subcellular fractionation, following treatments, cells were separated into nuclear and cytoplasmic fractions using the NE-PER kit (Thermo Scientific), and 10 μg cytoplasmic and nuclear protein fractions were loaded onto SDS-PAGE for immunoblotting. […] The membranes were incubated with peroxidase-conjugated goat anti-rabbit or goat anti-mouse secondary antibodies in TBST (1:2000; Thermo Scientific). […] Protein bands were resolved using the SuperSignal West Dura kit (Thermo Scientific), visualized by exposure to X-ray film (HyBlot; Denville Scientific, Denville, N.J.), and following densitometric scanning (Kodak Logic-100), the protein bands were quantified by normalizing to β-actin and compared to the untreated control, and the values represented by the graphs of relative protein levels compared to actin in each well and shown as % of Vehicle control.

ECC-1 cells = experiment: ECC-1 cell proliferation (MTS assay); format: cell-based, human; conditions: Lactacystin-treated cells
[1] = test system: p27 in 501 Mel, SK-MEL-147, and SK-MEL-173; experiment: Immunoblot of steady state protein levels in metastatic melanoma cell lines; format: cell-based, human; conditions: 501 Mel cells; 400 nM
Method: 501 Mel cells were also treated with MG-132 (a proteasome inhibitor) to confirm that p27 and p21 induction were responsive to known UPS inhibitors (FIG. 4A, right). […] Thus, treatment of cells with inhibitors targeting the Skp2-Cks1 interface induces protein levels of specific Skp2-Cks1 substrates.
Whole cell extracts were prepared and immunoblotted as previously described Dorrello et al., “S6K1- and betaTRCP-mediated Degradation of PDCD4 Promotes Protein Translation and Cell Growth,” Science 314:467-471 (2006), which is hereby incorporated by reference in its entirety. For knockdown of Skp2 or p27, shRNAs were induced with 2 ng/ml doxycycline for 48 hours, with the last 16 hours co-treated with 0.1% Vehicle or 10 μM inhibitors as indicated. For cycloheximide chase, cells were pretreated 16 h with 0.1% Vehicle or 10 μM inhibitors, followed by 20 ng/ml cycloheximide (Sigma) and whole cell extracts collected for each time point. […] Scanning densitometry was performed on immunoblots using Image J software. For cell cycle analysis, cells were treated with 0.1% Vehicle or 10 μM inhibitors for 16 h. 1×10^6 cells were fixed in 70% ethanol for 2 h, treated with 200 μg/ml RNase A (Invitrogen) for 30 minutes, and stained with 20 μg/ml Propidium Iodine (Sigma). All samples were assayed in triplicates. Signal was detected using the Becton Dickson LSRII flow cytometer and cell cycle profiles were analyzed with FloJo.

His-6Skp1-Skp2-Cks1 = biological target: T1, His-6Skp1-Skp2-Cks1 (Homo sapiens, UniProt P61024+Q13309); experiment: Differential scanning fluorimetry (protein melt); format: binding; conditions: compound 75 μM; protein 1.5 μM
T1 construct: His6-tagged human Skp2 (residues 89-424); Human full-length Cks1 was produced as described; made in house
Method: Protein melt assays were carried out following the manufacturer's protocol on the LightCycler 480 System II (Roche) using Sypro Orange dye (Sigma). Fluorescence (465 nm excitation/580 nm detection) was acquired (10 data points/sec) at a ramp rate of 0.06° C./sec between 20° C. and 85° C. Melting temperatures were calculated using the LightCycler 480 Protein Melt analysis tool (Roche).

Skp2-p27 interaction = biological target: T2, Skp2-p27 interaction (Homo sapiens, UniProt P61024+Q13309); experiment: p27 binding to HA-Skp2 (HA-immunoprecipitation); conditions: 10 μM; HA-Skp2 and Cks1 pretreated before p27-pT187; without ubiquitylation
T2 construct: made in house; host or cells: cell-free: rabbit reticulocyte lysate (TNT T7 Coupled Reticulocyte Lysate System, Promega) from pcDNA3.1 plasmids
Method: In vitro ubiquitylation assays were incubated with anti-HA affinity matrix (Roche) in IP buffer (50 mM Tris pH 7.6, 150 mM NaCl, 0.1% NP40, and Roche Complete EDTA-free protease tablet) for 16 h at 4° C. Beads were washed 3× with IP buffer and eluted with 2×SDS Sample Buffer (Boston Bioproducts) and 10% Beta-mercaptoethanol. For binding without ubiquitylation, HA-Skp2 IVT (10 μl) and Cks1 IVT (10 μl) were preincubated with anti-HA affinity matrix in IP buffer for 2 hours, with the addition of p27 kinase reaction (10 μl) for another 16 h incubation at 4° C. All reactions were analyzed after SDS/PAGE by western blotting. Where indicated, Skp2 and Cks1 were pretreated with 10 μM inhibitors for 30 minutes. Kinase reactions were performed with p27 IVT (10 μl) and 0.5 μg/ul CyclinE/CDK2 in kinase buffer (50 mM Tris HCL pH 7.5, 10 mM MgCl2, 2 mM ATP, 2.5 μM Okadaic Acid, and 0.6 mM DTT) at 30° C. for 1 h.

SCF-Skp2 (Skp2-Cks1) = biological target: T3, SCF-Skp2 (Skp2-Cks1) (Homo sapiens, UniProt P61024+Q13309); experiment: In vitro ubiquitylation assay, Skp2-mediated p27 ubiquitylation (Wild-Type Cks1); format: biochemical; conditions: 50 μM compound, immunoblot for p27-(Ub)n
T3 construct: made in house; host or cells: cell-free: rabbit reticulocyte lysate (TNT T7 Coupled Reticulocyte Lysate System, Promega) from pcDNA3.1 plasmids
Method: The 96 hits were tested in an in vitro ubiquitylation assay driven by in vitro transcribed/translated Skp2, Cks1, and p27 (Sitry et al., “Three Different Binding Sites of Cks1 are Required for p27-ubiquitin Ligation,” J. Biol. Chem. 277:42233-42240 (2002)). Assay sensitivity was established for various criteria (FIG. 1B): Enhanced ubiquitylation with Cks1 (lane 2), kinase activity requirement (lane 3), and responsiveness to known inhibitors of Cullin (lane 5) or Cdk2 (lane 6) activity (Meijer et al., “Biochemical and Cellular Effects of Roscovitine, a Potent and Selective Inhibitor of the Cyclin-dependent Kinases cdc2, cdk2 and cdk5,” Eur. J. Biochem. 243:527-536 (1997); Soucy et al., “An Inhibitor of NEDD8-activating Enzyme as a New Approach to Treat Cancer,” Nature 458:732-736 (2009), which are hereby incorporated by reference in their entirety). Compounds showing at least 50% inhibition of Skp2-mediated p27 ubiquitylation (FIG. 1C) were counter-screened for inactivity against two anti-target E3 ligases: MDM2 and SCF-βTrCP (FIGS. 6A-B). Compounds C1 and C2 were identified from the primary VLS and C16 and C20 were identified from a second VLS (FIG. 2).
In vitro reconstituted assays were performed as previously described (Dorrello et al., “S6K1- and betaTRCP-mediated Degradation of PDCD4 Promotes Protein Translation and Cell Growth,” Science 314:467-471 (2006), which is hereby incorporated by reference in their entirety) with the exceptions of the use of (1) unlabeled proteins (wild-type and mutant Skp2 and Cks1, p27, Flag-βTrCP, and HA-PDCD4) generated by in vitro transcription-translation (TNT T7 Coupled Reticulocyte Lysate System, Promega); (2) chain elongation with non-methylated ubiquitin; and (3) immunoblotting to detect poly-ubiquitylation. The following reagents were obtained from Boston Biochem: UBE1, His-UbcH3, His-UbcH5c, Ubiquitin, and Ubiquitin Aldehyde. Additional reagents include CDK2/CyclinE1 (Sigma-Aldrich), S6K (Invitrogen), Okadaic acid (Sigma), and DMSO (Sigma-Aldrich). For ubiquitin charging, UBE1 (100 nM) and His-UbcH3 (10 ng/μl) were incubated with ubiquitin (2.5 μg/μl), ATP (2 mM), and 10 μM […] of inhibitors or Vehicle control for 60 min at 30° C. Reactions were stopped in nondenaturing 2× Sample Buffer, with the addition of 10% Beta-mercaptoethanol as indicated, and analyzed by Western blotting.

T2 sequence (Q13309 whole entry): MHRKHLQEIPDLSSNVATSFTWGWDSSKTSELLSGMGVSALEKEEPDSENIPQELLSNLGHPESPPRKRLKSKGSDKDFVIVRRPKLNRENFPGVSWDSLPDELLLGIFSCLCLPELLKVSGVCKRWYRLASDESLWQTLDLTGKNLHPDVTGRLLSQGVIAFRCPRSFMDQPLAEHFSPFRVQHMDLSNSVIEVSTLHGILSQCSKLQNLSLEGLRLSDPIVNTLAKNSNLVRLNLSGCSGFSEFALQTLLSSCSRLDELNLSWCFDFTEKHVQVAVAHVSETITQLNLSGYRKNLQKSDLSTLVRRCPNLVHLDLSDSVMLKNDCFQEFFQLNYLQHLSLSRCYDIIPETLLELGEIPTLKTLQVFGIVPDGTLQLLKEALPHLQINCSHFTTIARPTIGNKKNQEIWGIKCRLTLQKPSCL
T2 sequence (P61024 whole entry): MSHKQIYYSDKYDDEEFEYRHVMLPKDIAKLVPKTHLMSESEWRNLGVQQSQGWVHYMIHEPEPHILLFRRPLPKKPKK
T2 sequence (P63208 whole entry partner): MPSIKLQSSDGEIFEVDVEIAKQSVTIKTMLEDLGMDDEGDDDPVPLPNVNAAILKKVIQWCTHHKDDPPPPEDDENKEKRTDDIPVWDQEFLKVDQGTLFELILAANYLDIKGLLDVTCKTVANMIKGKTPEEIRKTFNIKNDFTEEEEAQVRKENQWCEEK
T2 sequence (Q13616 whole entry partner): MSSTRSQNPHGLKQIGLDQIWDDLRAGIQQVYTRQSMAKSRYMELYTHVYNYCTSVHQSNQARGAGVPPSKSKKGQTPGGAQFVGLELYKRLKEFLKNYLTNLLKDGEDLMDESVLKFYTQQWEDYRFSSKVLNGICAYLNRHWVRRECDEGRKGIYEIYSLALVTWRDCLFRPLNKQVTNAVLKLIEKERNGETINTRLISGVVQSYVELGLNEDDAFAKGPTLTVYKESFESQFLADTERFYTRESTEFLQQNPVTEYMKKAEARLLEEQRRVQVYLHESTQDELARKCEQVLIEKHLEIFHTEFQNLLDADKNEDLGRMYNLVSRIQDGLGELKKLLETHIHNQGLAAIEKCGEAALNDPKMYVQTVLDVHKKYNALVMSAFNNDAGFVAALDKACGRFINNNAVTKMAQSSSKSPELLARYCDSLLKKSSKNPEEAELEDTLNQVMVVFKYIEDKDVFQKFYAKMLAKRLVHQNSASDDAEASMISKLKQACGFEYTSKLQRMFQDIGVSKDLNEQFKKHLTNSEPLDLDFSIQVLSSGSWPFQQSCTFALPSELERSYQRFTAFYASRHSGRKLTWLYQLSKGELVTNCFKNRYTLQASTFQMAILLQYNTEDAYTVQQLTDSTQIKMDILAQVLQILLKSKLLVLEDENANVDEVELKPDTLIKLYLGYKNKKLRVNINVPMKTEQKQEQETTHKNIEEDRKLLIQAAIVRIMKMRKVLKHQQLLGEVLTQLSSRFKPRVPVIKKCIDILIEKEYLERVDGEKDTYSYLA
T2 sequence (P62877 whole entry partner): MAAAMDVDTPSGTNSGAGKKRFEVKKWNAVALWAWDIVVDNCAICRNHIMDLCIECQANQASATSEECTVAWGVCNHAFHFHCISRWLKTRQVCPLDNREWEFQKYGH
T3 sequence (Q13309 whole entry): as the sequence (Q13309 whole entry) above
T3 sequence (P61024 whole entry): as the sequence (P61024 whole entry) above
T3 sequence (P63208 whole entry partner): as the sequence (P63208 whole entry partner) above
T3 sequence (Q13616 whole entry partner): as the sequence (Q13616 whole entry partner) above
T3 sequence (P62877 whole entry partner): as the sequence (P62877 whole entry partner) above
T1 sequence (Q13309 89-424 limits assumed): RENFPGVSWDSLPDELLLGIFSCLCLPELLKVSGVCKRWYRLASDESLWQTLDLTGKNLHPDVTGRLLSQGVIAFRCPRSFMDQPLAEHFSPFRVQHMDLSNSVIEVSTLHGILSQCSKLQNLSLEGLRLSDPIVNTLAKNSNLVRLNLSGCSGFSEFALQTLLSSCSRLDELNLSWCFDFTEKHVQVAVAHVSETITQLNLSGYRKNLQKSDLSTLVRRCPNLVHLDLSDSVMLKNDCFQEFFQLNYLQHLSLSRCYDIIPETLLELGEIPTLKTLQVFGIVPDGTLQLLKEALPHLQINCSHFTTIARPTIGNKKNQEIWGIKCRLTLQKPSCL
T1 sequence (P61024 whole entry, the tested form may be a part): as the sequence (P61024 whole entry) above

SMILES: C[C@]12CC[C@@H]3c4ccc(O)cc4C[C@@H](CCCCCCCCC[S+]([O-])CCCC(F)(F)C(F)(F)F)[C@H]3[C@@H]1CC[C@@H]2O (some centres unmarked) [ICI 182,780, reference compound]
Block of E2-induced decrease of p27 (p27 in ECC-1 cells; 18 h): nearly completely blocked
Effect on E2-induced decrease in nuclear p27 (p27 in ECC-1 cells; ECC-1, E2 plus 10 nM ICI 182,780, 18 h): to the level of untreated control

SMILES: CC(=O)N[C@@H](CSC(=O)[C@]1([C@@H](O)C(C)C)NC(=O)[C@H](C)[C@@H]1O)C(=O)O [Lactacystin, reference compound]
p27 in nuclear and cytoplasmic fractions (p27 in ECC-1 cells; ECC-1 (FIG. 11D)): increases p27 in both subcellular fractions
Block of E2-induced decrease of p27 (p27 in ECC-1 cells; 18 h): completely blocked
Inhibition of proliferation (ECC-1 cells): 36%

SMILES: NS(=O)(=O)OC[C@@H]1C[C@@H](n2ccc3c(N[C@H]4CCc5ccccc54)ncnc32)C[C@@H]1O [MLN-4924, reference compound]
Neddylation of Cul1 [1]: inhibited neddylation of Cul1

SMILES: COc1cccc(-c2cc(=O)c3ccccc3o2)c1N [PD 98059, PD98059, reference compound]
p27 less than control (p27 in ECC-1 cells; ECC-1, E2 plus 20 μM PD98059, 18 h): 24%

Shift of melting temperature (Tm) of purified protein complex (His-6Skp1-Skp2-Cks1): not
SMILES: COc1ccc(Br)cc1C=C1SC(=S)N(Cc2cccnc2)C1=O [UM-C1, reference compound]
p27 binding to Skp2 (Skp2-p27 interaction): lost the ability to inhibit p27 from binding to Skp2

Inhibition of Skp2-mediated p27 ubiquitylation (SCF-Skp2 (Skp2-Cks1)): partially reduced p27 ubiquitylation
SMILES: COCCCN1C(=O)C(=Cc2ccccc2O)C(C(=O)OC)=C1C [UM-C2a, reference compound]

SMILES: CCN1C(=O)C(=Cc2ccccc2O)C(C(=O)OC)=C1C [UM-C2b, reference compound]
p27 binding to Skp2 (Skp2-p27 interaction): lost the ability to inhibit p27 from binding to Skp2

— patent US9261497B2, “Method of treating cancer with modulators of SCFSkp2” (New York University, priority 2012, dated 2016)
